Laboratory results published in patent publication US11299715B2, “Use of iNOS inhibitors to increase viral yield in culture” (priority 2013, dated 2022).

Experiments:
iNOS = test: Western blot of iNOS in HSV-1 d27.1-infected V27 cell lysates; type: cell-based, African green monkey; conditions: 30 μM ATA; d27.1 MOI 1; V27 lysates 24 h.p.i.; with or without 10% FBS
Method: V27 cells in Dulbecco's Modified Eagles Medium (DMEM) (Hyclone, Waltham, Mass.) were infected with the HSV-1 d27.1 vector at an MOI of 1 and treated with 30 μM ATA (Sigma, St. Louis, Mo.), with or without 10% fetal bovine serum (FBS). Control experiments without ATA were also performed. V27 cell lysates were obtained 24 hours post infection (h.p.i.) and Western blots were run on the lysates and iNOS protein was detected by using purified rabbit anti-iNOS/NOS Type II pAb (BD Biosciences, Cat#610332).

rAAV-GFP vector = test: rAAV production by rHSV-rep2/cap2 and rHSV-EGFP co-infection of 293 cells; type: cell-based, AAV
Method: 293 cells (2.5×10^6) were simultaneously co-infected with both rHSV-rep2/cap2 and rHSV-EGFP vectors as described by Kang et al., Gene Ther (2009) 16:229-239. At 2-4 hr post infection, infectious medium was exchanged with DMEM+10% FBS equivalent to double the preinfection culture volume. At the time of harvest, the cell pellet was frozen at −80° C. DRP titers were quantified by real-time polymerase chain reaction (qPCR) in a96-well block thermocycler (Applied Biosystems; 7500 Real Time PCR system). Crude samples were subjected to three cycles of freezing and thawing, then incubated in the presence of Benzonase (250 U/ml), 2 mM MgCl2, 1% final concentration protein grade Tween 80 (Calbiochem) and incubated at 37° C. for 60 min, followed by 0.25% Trypsin (Gibco) digestion at 50° C. for 60 min. Finally, treatment with DNase I (50 U/ml; Promega) at 37° C. for 30 min, and then denatured at 95° C. for 20 min. Linearized plasmidpDC67/+SV40 was used to generate standard curves. The primer-probe set was specific for the simian virus 40 (SV40) poly(A) sequence: rAAV-F: 5′-[…]-3′ (SEQ ID NO:4); rAAV-R: 5′-[…]-3′ (SEQ ID NO:5); rAAV-Probe: 5′ 6-FAM-[…]-TAMRA-3′ (SEQ ID NO:6).
In order to determine whether the presence of ATA during HSV production impacted the yield of rAAV virions produced using HSV vectors, the following experiment was performed showing rAAV titers affected by ATA residue present from rHSV-1 stocks produced in 293 cells (FIG. 5A). […] One-way ANOVA; Tukey's-test:*p<0.05; 20 μM ATA vs. No ATA; n=4 independent experiments.
This effect was not observed when the ATA concentrations were higher then 20 μM (FIG. 5B).

NOS1 = nNOS = test: Affymetrix Gen Array, NOS1 expression in 293 cells; type: cell-based, human; conditions: for NOS1 expression, ATA: ATA alone
Method: (§1) Confluent 293 cells (2.4×10^6 cells in a 75 cm^2 flask) were cultured in DMEM+10% FCS for approximately 20 hrs and were then infected with one plaque forming unit per cell (PFU/cell) of HSV-1 MacIntyre Strain for 90 min. ATA at a concentration 20 μM (final) was added 90 min post-infection. The infected cells were harvested at 24 h after infection. Total RNA of sufficient quality and quantity was isolated from suspension using RNeasy Plus Mini Kit (QIAGEN, Valencia, Calif.) according to the manufacturer's instructions. Whole genome expression profiling was performed on Affymetrix Human U133 Plus 2.0 Array by the Asuragen, Inc. 3 μg total RNA was provided as input material.
(§2) Overall, RNA quality assessed on the bioanalyzer had RIN values of >9. Array hybridization and scaling factors were within passing quality control range. After scanning, raw expression CEL files were processed with Affymetrix Expression Console vs.1.1.2 (affymetrix.com). Each CEL file was processed with Robust Multichip Analysis (RMA) and a summarized table was exported as a text file. All downstream genomics and statistical analyses were done with JMP Genomics (version 5) (jmp.com/software/genomics). First, a filtering step was applied to filter-out low expression, specifically, those values below 6 in log^2 mode in at least 2 out of 8 samples. Out of 54,675 total Affy U133 Plus2 probes, 41,569 (76%) probes remained after the cutoff. Two positive control samples were also seen, human brain and pooled human universal reference RNA, respectively, that hybridized well. For future analysis, these two samples were excluded.
The first principle component separation (91.7%) is therefore explained by the effect of HSV versus Vehicle. Data was median-normalized across each probe to have a median signal of 0. ANOVA was performed to find significant differential transcripts between HSV versus Vehicle, ATA versus Vehicle, […] versus Vehicle, and HSV+ATA versus HSV alone. Multiple testing corrections were not included, and significant genes were considered less that p-value of 0.01.
To identify cell response gene signatures to wtHSV-1 McIntyre infection, transcriptional profiling was done using Affymetrix Human U133 Plus 2.0 Array with 293 cells that were either mock-treated, ATA-treated (ATA), wtHSV-1 McIntyre-infected (HSV) or ATA-treated and wtHSV-1 McIntyre-infected (HSV&ATA) for 24 h. Gene expression changes induced by infection or ATA treatment were identified by referencing the gene expression level for each probe to that corresponding in the uninfected cells sample. HSV-1 infection alone had strong impact on the gene expression profile of 293 cells when compared to untreated cells gene profile.

NOS2 = iNOS = test: Affymetrix Gen Array, NOS2 expression in 293 cells; type: cell-based, human; conditions: AF049656
Method: as §1
as §2, with “Out of 54,675 total Affy U133 Plus2 probes, 41,569 (76%) probes remained after the cutoff. Two positive control samples were also seen, human brain and pooled human universal reference RNA, respectively, that hybridized well. For future analysis, these two samples were excluded.” left out

NOS3 = eNOS = test: Affymetrix Gen Array, NOS3 expression in 293 cells; type: cell-based, human; conditions: probe 205581_s_at
Method: as §1
as §2, with “Out of 54,675 total Affy U133 Plus2 probes, 41,569 (76%) probes remained after the cutoff. Two positive control samples were also seen, human brain and pooled human universal reference RNA, respectively, that hybridized well. For future analysis, these two samples were excluded.” left out

[1] = SABiosciences (QIAGEN) Jak-Stat RT-PCR Microarray in 293 cells; type: cell-based, human; conditions: listed as printed as NOS1, 240911_at
Method: 6×10e5 293 cells (from AGTC) were infected with wtHSV-1 McIntyre strain at MOI 1 in the presence of DMEM & 10% FBS with or without 50 uM ATA and 1-2 hours and diluted to 40% with DMEM & 10% FBS (final ATA concentration of 20 uM). Triplicate total RNA samples were harvested 24 hrs later using Qiagen RNeasy mini kit and DNase treated on the column and eluted. Eluate RNA triplicate samples were combined and photospectrometer O.D. readings were performed on the eluate at 260 and 280 nm to determine concentration. Sample RNA was converted into template cDNA using SABiosciences RT2 first strand kit. The cDNA was then used in the Human JAK/STAT Signaling Pathway PCR Array (PAHS-039A).

In the case of O=C(O)C1=CC(=C(c2ccc(O)c(C(=O)O)c2)c2ccc(O)c(C(=O)O)c2)C=CC1=O [ATA, 5-((3-carboxy-4-hydroxyphenyl)(3-carboxy-4-oxo-2,5-cyclohexadien-1-ylidene)methyl)-2-hydroxybenzoic acid], the “iNOS expression (Western blot)” value (iNOS) is reported as “inhibits”, the “rAAV titer, ATA spiked into 293 cell media during co-infection” value (rAAV-GFP vector; 10 μM ATA, 2 hrs co-infection step) is reported as “increase” and the “rAAV titers using HSV stock prepared with 20 μM ATA” value (rAAV-GFP vector; 20 μM ATA added during infection) is reported as “slightly increased”. For the same molecule, the “rAAV titer increase at higher spiked ATA concentrations” value (rAAV-GFP vector; ATA higher than 20 μM spiked into 293 cell media) was “not observed”, the “influence of ATA in rHSV-1 stocks on rAAV yield” value (rAAV-GFP vector; ATA present in rHSV-1 stocks) was “did not negatively influence” and the “increase of rAAV DRP/ml titer versus No ATA control” value (rAAV-GFP vector; rHSV-rep2/cap2 stock prepared with 20 μM ATA (Step 1), about 3 μM ATA during rAAV production, n=4) was 1.3 times. For the same molecule, the “rAAV titer with rHSV-rep2/cap2 stock prepared with 12 μM ATA” value (rAAV-GFP vector; stock prepared with 12 μM ATA, n=4) was “No significant rAAV titer increase”, the “NOS1 expression, ATA” value (NOS1 = nNOS; probe 207310_s_at) was 1 and the “NOS1 expression, HSV + ATA” value (NOS1 = nNOS; probe 207310_s_at, HSV alone 2.79) was 1.67. The “NOS1 expression, ATA” value (NOS1 = nNOS; probe 240911_at) was 1.02, the “NOS1 expression, HSV + ATA” value (NOS1 = nNOS; probe 240911_at, HSV alone 1.71) was 1.5 and the “NOS2 expression, ATA” value (NOS2 = iNOS; ATA alone) was −1.03. For the same molecule, the “NOS2 expression, HSV + ATA” value (NOS2 = iNOS; HSV + ATA, HSV alone 2.05) was 1.72, the “NOS3 expression, ATA” value (NOS3 = eNOS; ATA alone) was 1.24 and the “NOS3 expression, HSV + ATA” value (NOS3 = eNOS; HSV + ATA, HSV alone 2.45) was 1.94. For the same molecule, the “expression, ATA (Jak-Stat RT-PCR Microarray)” value ([1]; ATA alone) was 1.02 and the “expression, HSV + ATA (Jak-Stat RT-PCR Microarray)” value ([1]; HSV + ATA, HSV alone 1.71) was 1.5.
